Experimental data: patent US10202360B2 (CELGENE QUANTICEL RESEARCH, INC., priority 2016, dated 2019)

target: BRD4 (Homo sapiens (Human), UniProt O60885); test: In vitro enzyme inhibition assay - BRD4 inhibition (as described in U.S. Pat. No. 9,034,900); format: binding; details: Table 29; BRD4 BD1

Row | SMILES | IC50 [nM]
1 | CCS(=O)(=O)Nc1ncc(Oc2ccc(F)cc2F)c(-c2cc(C)c(=O)n(CC3CC3)c2)n1 | < 500

target: CREBBP (Homo sapiens (Human), UniProt Q92793); test: In vitro enzyme inhibition assay - CREBBP inhibition (AlphaScreen, biotinylated H4-tetraacetyl peptide); format: binding; details: Table 28; AlphaScreen, H4-tetraacetyl peptide
Summary of the method: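 His-tagged CREBBP expressed in E. coli (50 nM final) incubated with biotinylated H4K5/8/12/16(Ac) peptide (20 nM final) in HEPES pH 7.3 buffer, 0.4% DMSO, 20 min at room temperature.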

CREBBP, sequence (Q92793 1081-1197): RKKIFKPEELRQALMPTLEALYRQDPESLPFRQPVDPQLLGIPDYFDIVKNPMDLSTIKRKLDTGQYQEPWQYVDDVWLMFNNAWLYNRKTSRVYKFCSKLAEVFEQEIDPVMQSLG

Row | SMILES | IC50 [nM]
2 | COc1nc(NCC2CCCc3ccccc32)cc(-c2ccc(=O)n(C)c2)n1 (centres unmarked) [Example 331, 5-{2-Methoxy-6-[(1,2,3,4-tetrahydro-naphthalen-1-ylmethyl)-amino]-pyrimidin-4-yl}-1-methyl-1H-pyridin-2-one] | < 500
3 | Cc1cccc(F)c1Oc1nc(N)cc(-c2ccc(=O)n(C)c2)n1 [Example 332, 5-[6-Amino-2-(2-fluoro-6-methyl-phenoxy)-pyrimidin-4-yl]-1-methyl-1H-pyridin-2-one] | < 500
4 | Cc1cccc(Cl)c1Oc1nc(N)cc(-c2ccc(=O)n(C)c2)n1 [Example 333, 5-[6-Amino-2-(2-chloro-6-methyl-phenoxy)-pyrimidin-4-yl]-1-methyl-1H-pyridin-2-one] | < 500
5 | Cc1cccc(Cl)c1Oc1nc(N)cc(-c2cc(C)c(=O)n(C)c2)n1 [Example 334, 5-[6-Amino-2-(2-chloro-6-methyl-phenoxy)-pyrimidin-4-yl]-1,3-dimethyl-1H-pyridin-2-one] | < 500
6 | Cc1cccc(C)c1Oc1nc(C#N)cc(-c2cc(C)c(=O)n(C)c2)n1 [Example 335, 6-(1,5-dimethyl-6-oxo(3-hydropyridyl))-2-(2,6-dimethylphenoxy)pyrimidine-4-carbonitrile] | < 500
7 | CCCS(=O)(=O)Nc1cc(-c2cc(C)c(=O)n(C)c2)nn1C [Example 336, Propane-1-sulfonic acid [5-(1,5-dimethyl-6-oxo-1,6-dihydro-pyridin-3-yl)-2-methyl-2H-pyrazol-3-yl]-amide] | 500 to 5000
8 | CCCCS(=O)(=O)Nc1cc(-c2ccc(=O)n(C)c2)nc(Oc2c(F)cccc2CC)n1 [Example 337, N-(2-(2-ethyl-6-fluorophenoxy)-6-(1-methyl-6-oxo-1,6-dihydropyridin-3-yl)pyrimidin-4-yl)butane-1-sulfonamide] | < 500
9 | CCc1cccc(F)c1Oc1nc(NS(=O)(=O)C(C)CC)cc(-c2ccc(=O)n(C)c2)n1 (centres unmarked) [Example 338, N-(2-(2-ethyl-6-fluorophenoxy)-6-(1-methyl-6-oxo-1,6-dihydropyridin-3-yl)pyrimidin-4-yl)butane-2-sulfonamide] | < 500
10 | CCCS(=O)(=O)Nc1cc(-c2ccc(=O)n(C)c2)nc(Oc2c(F)cccc2CC)n1 [Example 339, N-(2-(2-ethyl-6-fluorophenoxy)-6-(1-methyl-6-oxo-1,6-dihydropyridin-3-yl)pyrimidin-4-yl)propane-1-sulfonamide] | < 500
11 | CC(C)S(=O)(=O)Nc1cc(-c2ccc(=O)n(C)c2)nc(Oc2c(F)cccc2F)n1 [Example 340, N-(2-(2,6-difluorophenoxy)-6-(1-methyl-6-oxo-1,6-dihydropyridin-3-yl)pyrimidin-4-yl)propane-2-sulfonamide] | < 500
12 | CCCS(=O)(=O)Nc1cc(-c2ccc(=O)n(C)c2)nc(Oc2c(F)cccc2F)n1 [Example 341, N-(2-(2,6-difluorophenoxy)-6-(1-methyl-6-oxo-1,6-dihydropyridin-3-yl)pyrimidin-4-yl)propane-1-sulfonamide] | < 500
13 | CCCCS(=O)(=O)Nc1cc(-c2ccc(=O)n(C)c2)nc(Oc2c(F)cccc2F)n1 [Example 342, N-(2-(2,6-difluorophenoxy)-6-(1-methyl-6-oxo-1,6-dihydropyridin-3-yl)pyrimidin-4-yl)butane-1-sulfonamide] | < 500
14 | CCCCS(=O)(=O)Nc1cc(-c2ccc(=O)n(C)c2)nc(Oc2c(C)cc(F)cc2F)n1 [Example 343, N-(2-(2,4-difluoro-6-methylphenoxy)-6-(1-methyl-6-oxo-1,6-dihydropyridin-3-yl)pyrimidin-4-yl)butane-1-sulfonamide] | < 500
15 | CCCS(=O)(=O)Nc1cc(-c2ccc(=O)n(C)c2)nc(Oc2c(C)cc(F)cc2F)n1 [Example 344, N-(2-(2,4-difluoro-6-methylphenoxy)-6-(1-methyl-6-oxo-1,6-dihydropyridin-3-yl)pyrimidin-4-yl)propane-1-sulfonamide] | < 500
16 | CCC(C)S(=O)(=O)Nc1cc(-c2ccc(=O)n(C)c2)nc(Oc2c(C)cc(F)cc2F)n1 (centres unmarked) [Example 345, N-(2-(2,4-difluoro-6-methylphenoxy)-6-(1-methyl-6-oxo-1,6-dihydropyridin-3-yl)pyrimidin-4-yl)butane-2-sulfonamide] | < 500
17 | Cc1cc(F)cc(F)c1Oc1nc(NS(=O)(=O)C(C)C)cc(-c2ccc(=O)n(C)c2)n1 [Example 346, N-(2-(2,4-difluoro-6-methylphenoxy)-6-(1-methyl-6-oxo-1,6-dihydropyridin-3-yl)pyrimidin-4-yl)propane-2-sulfonamide] | < 500

Row | SMILES | IC50 [nM]
18 | CCCCS(=O)(=O)Nc1cc(-c2ccc(=O)n(C)c2)nc(Oc2c(C)ccc(F)c2F)n1 [Example 347, N-(2-(2,3-difluoro-6-methylphenoxy)-6-(1-methyl-6-oxo-1,6-dihydropyridin-3-yl)pyrimidin-4-yl)butane-1-sulfonamide] | < 500
19 | CCCS(=O)(=O)Nc1cc(-c2ccc(=O)n(C)c2)nc(Oc2c(C)ccc(F)c2F)n1 [Example 348, N-(2-(2,3-difluoro-6-methylphenoxy)-6-(1-methyl-6-oxo-1,6-dihydropyridin-3-yl)pyrimidin-4-yl)propane-1-sulfonamide] | < 500
20 | CCC(C)S(=O)(=O)Nc1cc(-c2ccc(=O)n(C)c2)nc(Oc2c(C)ccc(F)c2F)n1 (centres unmarked) [Example 349, N-(2-(2,3-difluoro-6-methylphenoxy)-6-(1-methyl-6-oxo-1,6-dihydropyridin-3-yl)pyrimidin-4-yl)butane-2-sulfonamide] | < 500
21 | CCCCS(=O)(=O)Nc1cc(-c2ccc(=O)n(C)c2)nc(Oc2c(F)ccc(F)c2C)n1 [Example 350, N-(2-(3,6-difluoro-2-methylphenoxy)-6-(1-methyl-6-oxo-1,6-dihydropyridin-3-yl)pyrimidin-4-yl)butane-1-sulfonamide] | < 500
22 | CCC(C)S(=O)(=O)Nc1cc(-c2ccc(=O)n(C)c2)nc(Oc2c(F)ccc(F)c2C)n1 (centres unmarked) [Example 351, N-(2-(3,6-difluoro-2-methylphenoxy)-6-(1-methyl-6-oxo-1,6-dihydropyridin-3-yl)pyrimidin-4-yl)butane-2-sulfonamide] | < 500
23 | CCCCS(=O)(=O)Nc1nc(Oc2c(C)cccc2F)nc(-c2ccc(=O)n(C)c2)c1F [Example 352, N-(5-fluoro-2-(2-fluoro-6-methylphenoxy)-6-(1-methyl-6-oxo-1,6-dihydropyridin-3-yl)pyrimidin-4-yl)butane-1-sulfonamide] | < 500
24 | CCCCS(=O)(=O)Nc1cc(-c2ccc(=O)n(C)c2)nc(OC2CCOCC2)n1 [Example 353, N-(6-(1-methyl-6-oxo-1,6-dihydropyridin-3-yl)-2-((tetrahydro-2H-pyran-4-yl)oxy)pyrimidin-4-yl)butane-1-sulfonamide] | < 500
25 | CCCS(=O)(=O)Nc1cc(-c2ccc(=O)n(C)c2)nc(OC2CCOCC2)n1 [Example 354, N-(6-(1-methyl-6-oxo-1,6-dihydropyridin-3-yl)-2-((tetrahydro-2H-pyran-4-yl)oxy)pyrimidin-4-yl)propane-1-sulfonamide] | < 500
26 | CC(C)Oc1nc(NS(=O)(=O)c2ccccc2)cc(-c2ccc(=O)n(C)c2)n1 [Example 355, N-(2-isopropoxy-6-(1-methyl-6-oxo-1,6-dihydropyridin-3-yl)pyrimidin-4-yl)benzenesulfonamide] | < 500
27 | Cn1cc(-c2cc3nc(n2)Oc2cccc(c2)OCC=CCCS(=O)(=O)N3)ccc1=O [Example 356, 5-(10,10-dioxido-2,4-dioxa-10-thia-11-aza-1(2,4)-pyrimidina-3(1,3)-benzenacycloundecaphan-6-en-16-yl)-1-methylpyridin-2(1H)-one] | < 500
28 | Cn1cc(-c2cc3nc(n2)Oc2cccc(c2)OCCCCCS(=O)(=O)N3)ccc1=O [Example 357, 5-(10,10-dioxido-2,4-dioxa-10-thia-11-aza-1(2,4)-pyrimidina-3(1,3)-benzenacycloundecaphane-1^6-yl)-1-methylpyridin-2(1H)-one] | < 500
29 | Cn1cc(-c2cc3nc(n2)Oc2cccc(c2)OCCC=CCCS(=O)(=O)N3)ccc1=O [Example 358, 5-(11,11-dioxido-2,4-dioxa-11-thia-12-aza-1(2,4)-pyrimidina-3(1,3)-benzenacyclododecaphan-7-en-1^6-yl)-1-methylpyridin-2(1H)-one] | < 500
30 | Cn1cc(-c2cc3nc(n2)Oc2cccc(c2)OCCCCCCS(=O)(=O)N3)ccc1=O [Example 359, 5-(11,11-dioxido-2,4-dioxa-11-thia-12-aza-1(2,4)-pyrimidina-3(1,3)-benzenacyclododecaphane-1^6-yl)-1-methylpyridin-2(1H)-one] | < 500
31 | Cn1cc(-c2cc3nc(n2)Oc2cc(ccc2Cl)OCC=CCCS(=O)(=O)N3)ccc1=O [Example 360, 5-(36-chloro-10,10-dioxido-2,4-dioxa-10-thia-11-aza-1(2,4)-pyrimidina-3(1,3)-benzenacycloundecaphan-6-en-1^6-yl)-1-methylpyridin-2(1H)-one] | < 500
32 | Cn1cc(-c2cc3nc(n2)Oc2cc(ccc2Cl)OCC=CCCCS(=O)(=O)N3)ccc1=O [Example 361, 5-(36-chloro-11,11-dioxido-2,4-dioxa-11-thia-12-aza-1(2,4)-pyrimidina-3(1,3)-benzenacyclododecaphan-6-en-1^6-yl)-1-methylpyridin-2(1H)-one] | < 500
33 | Cn1cc(-c2cc3nc(n2)Oc2cc(ccc2F)OCC=CCCCS(=O)(=O)N3)ccc1=O [Example 362, 5-(36-fluoro-11,11-dioxido-2,4-dioxa-11-thia-12-aza-1(2,4)-pyrimidina-3(1,3)-benzenacyclododecaphan-6-en-1^6-yl)-1-methylpyridin-2(1H)-one] | < 500

same assay, conditions: Table 29

Row | SMILES | IC50 [nM]
34 | CCS(=O)(=O)Nc1ncc(Oc2ccc(F)cc2F)c(-c2cc(C)c(=O)n(CC3CC3)c2)n1 | > 5000
35 | Cc1sc2c(c1C)C(c1ccc(Cl)cc1)=N[C@@H](CC(=O)OC(C)(C)C)c1nnc(C)n1-2 [JQ-1, tert-butyl (S)-2-(4-(4-chlorophenyl)-2,3,9-trimethyl-6H-thieno[3,2-f][1,2,4]triazolo[4,3-a][1,4]diazepin-6-yl)acetate, reference compound] | > 5000
